Measured values taken from patent US20220348876A1, “METABOLISM GUIDES DEFINITIVE LINEAGE SPECIFICATION DURING ENDOTHELIAL TO HEMATOPOIETIC TRANSITION” (Amniotics AB, priority 2019, published 2022).

Columns and labels:
[1] = tested on: NSG mice; assay: NSG mice transplantation of DCA-treated HE cells; type: in vivo; conditions: week 8; text does not separate DCA from control
Experimental: Sorted human HE cells (350,000) were mixed with OP9-DL1 stroma (60,000) and subcultured for 3 days with or without DCA (3 mM) on Matrigel (16 μg/cm^2, Corning)-coated 12-well plates in HE medium^30. Between 100,000-150,000 cells from control or DCA samples were transplanted into sub-lethally irradiated (300 cGy) 8-week-old female NOD/Cg-Prkdc^scid Il2rg^tm1Wjl/SzJ mice (NSG, The Jackson Laboratory) together with 20,000 whole bone marrow support cells from C57Bl/6.SJL mice (CD45.1+/CD45.2+, in house breeding). Cells were transplanted in single cell solution in 250 μL PBS with 2% FBS through intravenous tail vein injection. Drinking water of transplanted NSG mice was supplemented with ciprofloxacin (125 mg/L, HEXAL) for 3 weeks after transplantation to prevent infection. Mice were housed in a controlled environment with 12-hour light-dark cycles with chow and water provided ad libitum. Experiments and animal care were performed in accordance with the Lund University Animal Ethical Committee.
Peripheral blood (PB) was collected from the tail vein into EDTA-coated microvette tubes (Sarstedt, Cat #20.1341.100). […]
Bone marrow was analyzed at the 12-week transplantation endpoint. […]

[2] = tested on: mitochondrial pyruvate carrier (MPC); conditions: read-out: IC50 of pyruvate-dependent O2 consumption; cited from earlier work

Question: With `O=C(O)C(Cl)Cl` [DCA, dichloroacetate] as the molecule, how does the “engraftment: human CD45+ cells in the peripheral blood” value [1] read?
Answer: The value was “around 1%”.
